For data set [1], the target named is T1, human recombinant MMP-9 (Homo sapiens, UniProt P14780).
T1 construct: using 10 nM of proteolytic enzyme (catalytic domains of MMP-9 (Biomol, Inc.)); purchased Biomol, Inc
Description: MMP-9 fluorimetric assay. The conditions noted are these: catalytic domain of MMP-9 10 nM, substrate 350 nM, 25 °C, pH 7; mean ± SD (n = 3); n.a. = not active; read-out: IC50 Value. The class given is biochemical. As to the method: The synthesized compounds 13–19, 22 and 23 were tested for their in vitro ability to inhibit human recombinant MMP-9. Table 2 reports the results of this inhibition assay, expressed as IC50 (µM). […] We used as positive control a potent MMPs inhibitor, NNGH (N-isobutyl-N-(4-methoxy-phenylsulfonyl)glycylhydroxamic acid).
The compounds were evaluated for their ability to inhibit the hydrolysis of fluorescence-quenched peptide substrate Mca-Pro-Leu-Gly-Leu-Dpa-Ala-Arg-NH2 (Biomol, Inc., Enzo Life Sciences, Inc., Farmingdale, NY, USA). The MMP-9 assays were performed in 50 mM HEPES buffer containing 5 mM CaCl2, 0.1 mM ZnCl2, 0.05% Brij-35, at pH 7, using 10 nM of proteolytic enzyme (catalytic domains of MMP-9 (Biomol, Inc.) and 350 nM of peptide substrate. The enzyme was incubated at 25 °C with increasing concentration (0.0004, 0.004, 0.04, 0.4, 4, 40, 400 µM) of compounds, and the fluorescence (excitation max 328 nm; emission max 393 nm) was measured for 3 min after the addition of the substrate using a Victor Wallac 1420 Multilabel Counters fluorimeter (Perkin Elmer, Waltham, MA, USA). The fluorescence values of the samples were plotted against the time with a linear regression fit, using the Origin software, version 7 (Origin Lab Corporation, Northampton, MA, USA). The slope of the line value for each inhibitor concentrations was obtained where an increase of the slope corresponds to a decrease of inhibitory activity. Subsequently, the IC50 values were obtained from a non-linear regression procedure (log inhibitor vs. response) with a variables slope of the regression line (Y) and the molar inhibitor concentration (X), using the software Origin®7 (Origin Lab Corporation). The IC50 value was obtained from the equation Y = P1/(1 + X/P2). NNGH (N-Isobutyl-N-(4-methoxyphenylsulfonyl)glycylhydroxamic acid) a potent MMPs inhibitor was used as a positive control.

The nature of data set [2]: Oxygen Radical Absorbance Capacity (ORAC) assay. The conditions noted are these: fluorescein 10 nM, AAPH 100 mM, 37 °C, pH 7.0; mean ± SD (n = 3); Trolox = 1 ORAC Units. The source says:
Free radicals and ROS are highly reactive molecules that are generated by normal cellular processes. They react with cellular components, damaging DNA, carbohydrates, proteins, and lipids causing cellular and tissue injury. Although organisms have developed complex antioxidant systems to protect themselves from oxidative substances, an excess of ROS production can lead to inflammation and several disease state. ORAC test measures both lipophilic and hydrophilic antioxidant capacity and determines the ability of antioxidants to protect proteins from damage caused by free radicals. ORAC assay has been widely accepted as a standard in vitro to measure the antioxidant activity of synthetic compounds, measuring their capacity to transfer hydrogen atom. The assay measures the loss of fluorescence over time due to peroxyl-radical formation by the breakdown of 2,2′-azobis-2-methyl-propanimidamide dihydrochloride (AAPH). 6-Hydroxy-2,5,7,8-tetramethylchroman-2-carboxylic acid (Trolox), a water soluble vitamin E analog, is a positive control that inhibits the fluorescein decay in a dose dependent manner. The ORAC assay is a kinetic assay measuring fluorescein decay and antioxidant protection over time.
The ORAC assay was performed as previously reported by Cao et al.. The measurements were carried out on a Wallac 1420 Victor^3 96-well plate reader (EG & Wallac, Turku, Finland) with fluorescence filter ([…]). Fluorescein (10 nM) was the fluorescence probe and target molecule for free radical attack from AAPH (100 mM) as peroxyl radical generator. The reaction was conducted at 37 °C at pH 7.0 with Trolox (12.5 μM) as control standard and phosphate buffer as blank. Compounds 13–19 and 22–23 were appropriately diluted with DMSO/buffer (1:10) prior to analysis. The fluorescein fluorescence was recorded every 2 min after addition of AAPH. All measurements were expressed relative to the initial reading. One blank, one standard, and a maximum of 10 samples were analyzed at the same time. Each measure was repeated at least three times. The ORAC value refers to the net protection area under the quenching curve of fluorescein in the presence of an antioxidant. The final results (ORAC value) were calculated and expressed using Trolox equivalents (TE) per gram of extract (TE/g):ORAC value (μM) = K(S sample − S blank)/(S Trolox − S blank)(1) where K is a sample dilution factor, S is the area under the fluorescence decay curve of the sample, Trolox or blank. This area was calculated with Origin®7 (OriginLab Corporation, Northampton, MA, USA).

Consider 14 molecules from paper PMC6017844, “4-Thiazolidinone Derivatives as MMP Inhibitors in Tissue Damage: Synthesis, Biological Evaluation and Docking Studies” (Molecules : A Journal of Synthetic Chemistry and Natural …, 2018).

T1 sequence (P14780 107-444 limits assumed): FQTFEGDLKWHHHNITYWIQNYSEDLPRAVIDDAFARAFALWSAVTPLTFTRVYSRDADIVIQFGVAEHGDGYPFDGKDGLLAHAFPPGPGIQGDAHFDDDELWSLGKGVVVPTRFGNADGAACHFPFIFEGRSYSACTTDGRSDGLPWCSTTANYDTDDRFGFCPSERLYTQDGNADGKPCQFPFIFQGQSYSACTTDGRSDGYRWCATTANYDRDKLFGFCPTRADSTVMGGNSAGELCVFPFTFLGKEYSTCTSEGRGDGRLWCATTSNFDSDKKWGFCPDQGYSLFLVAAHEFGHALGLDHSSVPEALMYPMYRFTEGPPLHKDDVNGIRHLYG

Consider `CC(C(=O)NN1C(=O)CSC1c1ccccc1)c1nsc2ccccc12` (centres unmarked) (hydrate or solvate) [Compound 13, 2-(1,2-Benzothiazol-3-yl)-N-(4-oxo-2-phenyl-1,3-thiazolidin-3-yl)propanamide], for which the melting point (as a rule, the temperature of the solid-liquid transition) was 239 to 240 °C.
As for `COc1ccc(C2SCC(=O)N2NC(=O)C(C)c2nsc3ccccc23)cc1` (centres unmarked) (hydrate or solvate) [Compound 15, 2-(1,2-Benzothiazol-3-yl)-N-[2-(4-methoxyphenyl)-4-oxo-1,3-thiazolidin-3-yl]propanamide], the melting point stood at 170 °C.
The same measure, in the same setting: the value for `CC(C(=O)NN1C(=O)CSC1c1ccc(F)cc1)c1nsc2ccccc12` (centres unmarked) (hydrate or solvate) [Compound 16, 2-(1,2-Benzothiazol-3-yl)-N-[2-(4-fluorophenyl)-4-oxo-1,3-thiazolidin-3-yl]propanamide] was 185 to 186 °C.
The same measure, in the same setting: then `CC(C(=O)NN1C(=O)CSC1c1ccc(C(F)(F)F)cc1)c1nsc2ccccc12` (centres unmarked) (hydrate or solvate) [Compound 17, 2-(1,2-Benzothiazol-3-yl)-N-{4-oxo-2-[4-(trifluoromethyl)phenyl]-1,3-thiazolidin-3-yl}propanamide], with 145 to 147 °C; and `CC(C(=O)NN1C(=O)CSC1c1ccc(Cl)cc1)c1nsc2ccccc12` (centres unmarked) (hydrate or solvate) [Compound 18, 2-(1,2-Benzothiazol-3-yl)-N-[2-(4-chlorophenyl)-4-oxo-1,3-thiazolidin-3-yl]propanamide], with 187 to 188 °C; and `CC(C(=O)NN1C(=O)CSC1c1ccc([N+](=O)[O-])cc1)c1nsc2ccccc12` (centres unmarked) (hydrate or solvate) [Compound 19, 2-(1,2-Benzothiazol-3-yl)-N-[2-(4-nitrophenyl)-4-oxo-1,3-thiazolidin-3-yl]propanamide], with 208 to 209 °C.
With `CC(C(=O)NN1C(=O)CSC1c1ccccc1)c1nsc2ccccc12` (centres unmarked) [Compound 13, 2-(1,2-Benzothiazol-3-yl)-N-(4-oxo-2-phenyl-1,3-thiazolidin-3-yl)propanamide], the IC50 (as a rule, the point on the concentration scale where inhibition reaches its midpoint) in data set [1] was 7.99 ± 0.65 µM. For the same molecule, the “ORAC UNITs” value in data set [2] is 0.61 ± 0.14 ORAC unit (μmol of Trolox equi.
For `Cc1ccc(C2SCC(=O)N2NC(=O)C(C)c2nsc3ccccc23)cc1` (centres unmarked) [Compound 14, 2-(1,2-Benzothiazol-3-yl)-N-[2-(4-methylphenyl)-4-oxo-1,3-thiazolidin-3-yl]propanamide], in that order: 9.01 ± 0.45 µM and 0.40 ± 0.06 ORAC unit (μmol of Trolox equi.
For `COc1ccc(C2SCC(=O)N2NC(=O)C(C)c2nsc3ccccc23)cc1` (centres unmarked) [Compound 15, 2-(1,2-Benzothiazol-3-yl)-N-[2-(4-methoxyphenyl)-4-oxo-1,3-thiazolidin-3-yl]propanamide], in that order: 6.82 ± 0.95 µM and 0.66 ± 0.12 ORAC unit (μmol of Trolox equi.
For `CC(C(=O)NN1C(=O)CSC1c1ccc(F)cc1)c1nsc2ccccc12` (centres unmarked) [Compound 16, 2-(1,2-Benzothiazol-3-yl)-N-[2-(4-fluorophenyl)-4-oxo-1,3-thiazolidin-3-yl]propanamide], in that order: 17.2 ± 1.92 µM and 0.46 ± 0.20 ORAC unit (μmol of Trolox equi.
`CC(C(=O)NN1C(=O)CSC1c1ccc(C(F)(F)F)cc1)c1nsc2ccccc12` (centres unmarked) [Compound 17, 2-(1,2-Benzothiazol-3-yl)-N-{4-oxo-2-[4-(trifluoromethyl)phenyl]-1,3-thiazolidin-3-yl}propanamide]: in data set [2], the “ORAC UNITs” value is reported as 0.27 ± 0.06 ORAC unit (μmol of Trolox equi.
Take `CC(C(=O)NN1C(=O)CSC1c1ccc(Cl)cc1)c1nsc2ccccc12` (centres unmarked) [Compound 18, 2-(1,2-Benzothiazol-3-yl)-N-[2-(4-chlorophenyl)-4-oxo-1,3-thiazolidin-3-yl]propanamide]: the IC50 in data set [1] was determined as 16.1 ± 1.23 µM. Further, the “ORAC UNITs” value in data set [2] is 0.47 ± 0.23 ORAC unit (μmol of Trolox equi.
For `CC(C(=O)NN1C(=O)CSC1c1ccc([N+](=O)[O-])cc1)c1nsc2ccccc12` (centres unmarked) [Compound 19, 2-(1,2-Benzothiazol-3-yl)-N-[2-(4-nitrophenyl)-4-oxo-1,3-thiazolidin-3-yl]propanamide], in that order: 22.1 ± 1.42 µM and 0.40 ± 0.17 ORAC unit (μmol of Trolox equi.
For `COc1ccc(S(=O)(=O)N(CC(=O)NO)CC(C)C)cc1` [NNGH, N-isobutyl-N-(4-methoxy-phenylsulfonyl)glycylhydroxamic acid, reference compound], the IC50 in data set [1] was found to be 0.0065 ± 0.00025 µM.
